Series [1] can be described thus: Abdominal effective half-life from sequential quantitative SPECT (mono-exponential fit). The format is in vivo. The method, then: (§1) Data for dosimetry were acquired during a routine 4-day in-patient stay following the radiopharmaceutical injection, in conjunction with standard clinical examinations. All patients received a 15-min one-bed abdominal SPECT scan and a 20-min whole-body planar scintigraphy at 24, 48, and 72 h post-injection (p. i.) on a dual-headed Symbia T2 SPECT/CT (Siemens Medical Solutions, Erlangen, Germany). Counts were detected for the photopeak window of 208 keV (width 15%) by the usage of a medium-energy low-penetration collimator. Two additional scatter windows were measured at 170 keV (width 15%) and 240 keV (width 10%). A low-dose AC-CT was acquired at the first image acquisition session for anatomical correlation and attenuation correction during quantitative SPECT reconstruction. For the determination of the absorbed dose to the bone marrow from the activity circulating in the blood, five venous blood samples were drawn from the site contralateral to injection at 30 and 80 min p. i. and 24, 48, and 72 h p. i..
Quantitative SPECT images were reconstructed as described by Delker et al. via a rotation-based, penalised, one-step-late ordered subset expectation maximisation algorithm, which included corrections for scatter, attenuation, and distance-dependent geometrical collimator blur. Attenuation correction was performed for each SPECT scan via the AC-CT, which was acquired along with the SPECT scan 24 h post-injection. To apply the attenuation correction, especially to the SPECT scans 48 and 72 h p. i., the single AC-CT was co-registered onto an initial SPECT reconstruction without attenuation correction by using a rigid body co-registration algorithm with six degrees of freedom (PMOD Version 3.609, PMOD Technologies, Zurich, Switzerland). If only one AC-CT is acquired for sequential SPECT imaging, special care has to be taken to minimise misregistration between SPECT images and separately acquired CT scans, as such a misalignment can distort the proper attenuation correction and, thus, activity quantification. This is in principal also true for serial SPECT and CT imaging, as even within a single image acquisition session patient movements cannot be entirely avoided. Scatter correction employed the triple energy window (TEW) method. Correction for distance-dependent collimator blur made use of a Gaussian blur model. Corrections for partial volume effects and dead time were not applied. For conversion of the measured counts per second and per voxel to Becquerel per millilitre, an appropriate calibration factor was determined. Therefore, we used a large cylinder of approximately 20 cm diameter, which was filled with a known activity concentration and which has been imaged and reconstructed via the same protocol.
(§2) First, the abdominal effective decay constant λSPECT was derived via a mono-exponential fit to the total activity in the SPECT scans 24, 48, and 72 h post-therapy. Especially, all organs and all tumours were included in the fitting of the TAC, as it was the case for the determination of A~WB from the reference protocol. This effective decay constant λSPECT serves as a surrogate for the reference-protocol-based whole-body effective decay constant (Fig. 2). The mono-exponential SPECT-based abdominal TAC was then scaled with a chosen base point. This base point is defined via the whole-body activity AWB(t^∗) of a single whole-body planar image acquired at an arbitrary time point t^∗∈ 24, 48, or 72 h post-therapy. The resulting pseudo-whole-body TAC AWB, pseudo(t) is intended to serve as an estimate of the reference-protocol-based whole-body TAC (Eq. (7.1)) and can be further used to determine a pseudo-whole-body time-integrated activity A~WB,pseudo (Eq. (7.2)).

For another series, the system named is bone marrow. Briefly: Bone marrow dosimetry, hybrid protocol (HP): sequential abdominal quantitative SPECT scaled with a single whole-body planar image. The series is classed as in vivo, human. As to the method: The proposed hybrid protocol (HP) uses a single whole-body image and sequential single-bed quantitative SPECT acquisitions of the abdomen to determine the ROB TAC, instead of deriving the ROB TAC from sequential whole-body planar imaging.
as §2, with “This effective decay constant λSPECT serves as a surrogate for the reference-protocol-based whole-body effective decay constant (Fig. 2).” left out
7.1 AWB,pseudot=AWB,pseudot^∗∙exp−λSPECT∙t−t^∗, 7.2 A~WB,pseudo=∫t=0∞AWB,pseudot^′dt^′=AWBt^∗∙expλSPECT∙t^∗/λSPECT=AWBt^∗∙expλSPECT∙t^∗∙T1/2,SPECT/ln2.
Based on the hybrid model given in Eqs. (7.1) and (7.2), the bone marrow absorbed dose from the ROB can be estimated by Eqs. (4.1) and (4.2). In this work, we investigated a combination of the sequential abdominal SPECT with the whole-body planar images at 24, 48, or 72 h p. i., where each whole-body planar image was individually calibrated via the quantitative SPECT at the corresponding time point (Fig. 2). These different hybrid protocols were further denoted as HP24, HP48, and HP72. The agreement of the bone marrow absorbed doses from the ROB, as determined via the HP and the RP, was assessed. Therefore, the percentage deviation between absorbed dose estimates (PDdose; Eq. (8)) was calculated, and a statistical test for correlation was performed (MATLAB Pearson correlation analysis).
Furthermore, the same analysis was performed regarding the total bone marrow absorbed dose estimates composed of all available constituents: the ROB (including tumours), the explicitly analysed organs, and the contribution of the blood activity.

Series [2] in a line: Blood time-activity curve from venous blood samples (gamma counter, bi-exponential fit). The following applies: blood samples 30 min, 80 min, 24, 48, 72 h p. i.; median of n = 5 patients per therapy. The series is classed as in vivo, human. The method, then: as §1
[11, 13]. […] To derive the patient-specific blood TAC, 1 ml of blood of each sample was pipetted into a test tube and measured within a Cobra Gamma Counter (Packard Instrument Company, Inc., Meriden, CT), which has been previously calibrated via five 1-ml test samples of known activity concentration. […]

[3] abbreviates: mono-exponential fit to total activity in abdominal SPECT 24, 48, 72 h p. i., median of n = 5 patients per therapy.

From article PMC6081875 (EJNMMI Research, 2018) come the findings set out here.

Regarding `C[C@@H](O)[C@H](NC(=O)[C@@H]1CSSC[C@H](NC(=O)[C@@H](Cc2ccccc2)NC(=O)CN2CCN(CC(=O)O)CCN(CC(=O)O)CCN(CC(=O)O)CC2)C(=O)N[C@@H](Cc2ccc(O)cc2)C(=O)N[C@H](Cc2c[nH]c3ccccc23)C(=O)N[C@@H](CCCCN)C(=O)N[C@@H]([C@@H](C)O)C(=O)N1)C(=O)O` [Lu-177-Octreotate, Lu-177-[DOTA^0,Tyr^3]-Octreotate, metal not drawn], the “T1/2, SPECT, SPECT-based abdominal effective half-life” value is listed as 61 h in series [1] (setting [3]); 53 h in series [1] (mono-exponential fit, abdominal SPECT 24, 48, 72 h p. i., patient P1 (NET)); 61 h in series [1] (mono-exponential fit, abdominal SPECT 24, 48, 72 h p. i., patient P2 (NET)); 56 h in series [1] (mono-exponential fit, abdominal SPECT 24, 48, 72 h p. i., patient P3 (NET)); 73 h in series [1] (mono-exponential fit, abdominal SPECT 24, 48, 72 h p. i., patient P4 (NET)); 87 h in series [1] (mono-exponential fit, abdominal SPECT 24, 48, 72 h p. i., patient P5 (NET)). In the series with bone marrow (whole-body planar image 72 h p. i., patient P1 (NET, 7654 MBq)), the “DBM ← total HP72, total bone marrow absorbed dose” value is on record as 12.1 mGy/GBq. In series [2], the “effective half-life for the slow phase of the bi-exponential fit to the blood time-activity measurements” value is listed as 25 h.
Turning to `O=C(O)CC[C@H](NC(=O)N[C@@H](CCCCNC(=O)[C@H](Cc1ccc2ccccc2c1)NC(=O)[C@H]1CC[C@H](CNC(=O)CN2CCN(CC(=O)O)CCN(CC(=O)O)CCN(CC(=O)O)CC2)CC1)C(=O)O)C(=O)O` [Lu-177-PSMA-617, Lu-177-DKFZ-PSMA-617, metal not drawn], the “T1/2, SPECT, SPECT-based abdominal effective half-life” value in series [1] (setting [3]) was found to be 42 h; in series [1] (mono-exponential fit, abdominal SPECT 24, 48, 72 h p. i., patient P6 (mCRPC)), 33 h; in series [1] (mono-exponential fit, abdominal SPECT 24, 48, 72 h p. i., patient P7 (mCRPC)) it was 50 h; in series [1] (mono-exponential fit, abdominal SPECT 24, 48, 72 h p. i., patient P8 (mCRPC)), 67 h; in series [1] (mono-exponential fit, abdominal SPECT 24, 48, 72 h p. i., patient P9 (mCRPC)) it was 31 h; in series [1] (mono-exponential fit, abdominal SPECT 24, 48, 72 h p. i., patient P10 (mCRPC)), 42 h. Moreover, the “DBM ← total HP24, total bone marrow absorbed dose” value is 11.3 mGy/GBq with bone marrow (single whole-body planar image 24 h p. i., median of n = 5 patients per therapy); 11.3 mGy/GBq in the series on bone marrow (whole-body planar image 24 h p. i., patient P6 (mCRPC, 3718 MBq)); 8.1 mGy/GBq with bone marrow (whole-body planar image 24 h p. i., patient P7 (mCRPC, 3743 MBq)); 17.1 mGy/GBq with bone marrow (whole-body planar image 24 h p. i., patient P8 (mCRPC, 3745 MBq)); 13.5 mGy/GBq in the series on bone marrow (whole-body planar image 24 h p. i., patient P9 (mCRPC, 3752 MBq)); 10.0 mGy/GBq in the series with bone marrow (whole-body planar image 24 h p. i., patient P10 (mCRPC, 3700 MBq)). In addition, the “DBM ← total HP48, total bone marrow absorbed dose” value in the series on bone marrow (single whole-body planar image 48 h p. i., median of n = 5 patients per therapy) came to 9.6 mGy/GBq; in the series on bone marrow (whole-body planar image 48 h p. i., patient P6 (mCRPC, 3718 MBq)) it was 9.6 mGy/GBq; with bone marrow (whole-body planar image 48 h p. i., patient P7 (mCRPC, 3743 MBq)) it was 6.7 mGy/GBq; with bone marrow (whole-body planar image 48 h p. i., patient P8 (mCRPC, 3745 MBq)), 17.1 mGy/GBq; in the series with bone marrow (whole-body planar image 48 h p. i., patient P9 (mCRPC, 3752 MBq)), 13.6 mGy/GBq; in the series on bone marrow (whole-body planar image 48 h p. i., patient P10 (mCRPC, 3700 MBq)), 8.1 mGy/GBq. The “DBM ← total HP72, total bone marrow absorbed dose” value is 10.1 mGy/GBq in the series with bone marrow (single whole-body planar image 72 h p. i., median of n = 5 patients per therapy); 10.1 mGy/GBq with bone marrow (whole-body planar image 72 h p. i., patient P6 (mCRPC, 3718 MBq)); 7.0 mGy/GBq in the series with bone marrow (whole-body planar image 72 h p. i., patient P7 (mCRPC, 3743 MBq)); 16.8 mGy/GBq in the series with bone marrow (whole-body planar image 72 h p. i., patient P8 (mCRPC, 3745 MBq)); 15.1 mGy/GBq in the series on bone marrow (whole-body planar image 72 h p. i., patient P9 (mCRPC, 3752 MBq)); 8.5 mGy/GBq in the series with bone marrow (whole-body planar image 72 h p. i., patient P10 (mCRPC, 3700 MBq)). Moreover, the “effective half-life for the slow phase of the bi-exponential fit to the blood time-activity measurements” value in series [2] was 14 h.
